Experimental data reported in patent publication US20070244007A1, “Cis-Alkoxyspiro-Substituted Tetramic Acid Derivatives” (BAYER CROPSCIENCE AG, priority 2004, published 2007).

Columns and labels:
Format in all cases: in vivo
Summer barley [1] = assay: Container trials with cereals in the greenhouse, post-emergence, Mefenpyr applied 1 day prior to herbicide; settings: 50 g of a.i./ha, without safener
Description: (§1) 1. Herbicidal Post-Emergence Action
Seeds of monocotyledonous and dicotyledonous weed and crop plants are placed in sandy loam in wood fibre pots or in plastic pots, covered with soil and cultivated in a greenhouse, during the vegetation period also outdoors outside of the greenhouse, under good growth conditions. 2-3 weeks after sowing, the test plants are treated at the one- to three-leaf stage. The test compounds, formulated as wettable powders (WP) or emulsifiable concentrates (EC) are, in various dosages with a water application rate of 300 l/ha (converted), with wetting agent (0.2 to 0.3%) added, sprayed onto the plants and the surface of the soil. 3-4 weeks after the treatment of the test plants, the effect of the preparations is rated visually in comparison to untreated controls (herbicidal effect in per cent (%): 100% effect=the plants have died, 0% effect=like control plants). […]

[2] = tested on: green peach aphid (Myzus persicae); assay: Myzus Test (spray treatment); settings: 100 g/ha, Chinese cabbage discs
Description: (§2) To produce a suitable preparation of active compound, 1 part by weight of active compound is mixed with the stated amounts of solvents and emulsifier, and the concentrate is diluted with emulsifier-containing water to the desired concentration.
Discs of Chinese cabbage (Brassica pekinensis) which are infested by all stages of the green peach aphid (Myzus persicae) are sprayed with a preparation of active compound of the desired concentration.
After the desired period of time, the activity in % is determined. 100% means that all aphids have been killed; 0% means that none of the aphids have been killed.

Avena [3] = assay: Herbicidal post-emergence action, greenhouse; settings: 320 g a.i./ha, about 3 weeks
Description: (§3) 2. Herbicidal Post-Emergence Action
(§4) Seeds of monocotyledonous and dicotyledonous weed and crop plants are placed into sandy loam in wood fibre pots, covered with soil and cultivated in a greenhouse under good growth conditions. 2-3 weeks after sowing, the test plants are treated at the one-leaf stage. The test compounds, formulated as wettable powders (WP), are, in various dosages with a water application rate of 600 l/ha (converted), with 0.2% of wetting agent added, sprayed onto the green parts of the plants. After the test plants were kept in the greenhouse under optimum growth conditions for about 3 weeks, the effect of the preparations is rated visually in comparison to untreated controls (herbicidal effect in per cent (%): 100% effect=the plants have died, 0% effect=like control plants).

Setaria [4] = assay: Herbicidal post-emergence action, greenhouse; settings: 320 g a.i./ha, about 3 weeks
Description: as §3, §4

Agropyron [5] = assay: Herbicidal post-emergence action, greenhouse; settings: 320 g a.i./ha, about 3 weeks
Description: as §3, §4

Alopecurus [6] = assay: Herbicidal post-emergence action, greenhouse; settings: 320 g a.i./ha, about 3 weeks
Description: as §3, §4

Sugar-beets [7] = assay: Herbicidal post-emergence action, greenhouse; settings: 320 g a.i./ha, about 3 weeks
Description: as §3, §4

Lolium [8] = assay: Herbicidal post-emergence action, greenhouse; settings: 320 g a.i./ha, about 3 weeks
Description: as §3, §4

Summer wheat = assay: Container trials with cereals outdoors, post-emergence, Mefenpyr in tank mix; settings: 120 g of a.i./ha, without safener
Description: as §1
(§5) Seeds of monocotyledonous and dicotyledonous weed and crop plants are placed in sandy loam in wood fibre pots or in plastic pots, covered with soil and cultivated in a greenhouse, during the vegetation period also outdoors outside of the greenhouse, under good growth conditions. 2-3 weeks after sowing, the test plants are treated at the one- to three-leaf stage. The test compounds, formulated as wettable powders (WP) or emulsifiable concentrates (EC) are, in various dosages with a water application rate of 300 l/ha (converted), with wetting agent (0.2 to 0.3%) added, sprayed onto the plants and the surface of the soil. 3-4 weeks after the treatment of the test plants, the effect of the preparations is rated visually in comparison to untreated controls (herbicidal effect in per cent (%): 100% effect=the plants have died, 0% effect=like control plants).
(§6) If it is additionally to be tested whether safeners can improve the plant compatibility of test substances in the case of crop plants, the following options are used for applying the safener: • seeds of the crop plants are, before sowing, dressed with the safener substance (the amount of safener is stated in per cent, based on the weight of the seed) • before the application of the test substances, the crop plants are sprayed with the safener at a certain application rate per hectar (usually 1 day before the application of the test substances) • the safener is applied together with the test substance as a tank mix (the amount of safener is stated in g/ha or as a ratio, based on the herbicide).
(§7) By comparing the effect of test substances on crop plants with or without safener treatment, it is possible to assess the effect of the safener substance.
(§8) Container Trials with Cereals Outdoors (Outside the Greenhouse/“Bird Cage”) Mefenpyr in Tank Mix

Summer barley [9] = assay: as above; settings: 120 g of a.i./ha, without safener
Description: as §1, §5, §6, §7, §8

Meloidogyne incognita = assay: Meloidogyne Test (nematicidal action, gall formation on lettuce roots); settings: 20 ppm active compound; 100% = no galls
Description: To produce a suitable preparation of active compound, 1 part by weight of active compound is mixed with the stated amounts of solvent and emulsifier, and the concentrate is diluted with water to the desired concentration.
Vessels are filled with sand, solution of active compound, Meloidogyne incognita egg/larvae suspension and lettuce seeds. The lettuce seeds germinate and the plants develop. On the roots, the galls develop.
After the desired period of time, the nematicidal action is determined in % by the formation of galls. 100% means that no galls have been found; 0% means that the number of galls on the treated plants corresponds to that of the untreated control.

[10] = tested on: greenhouse red spider mite (Tetranychus urticae); assay: Tetranychus Test (OP-resistant/spray treatment); settings: 100 g/ha; bean leaf discs, spray, OP-resistant
Description: as §2
Discs of bean leaves (Phaseolus vulgaris) which are infested by all stages of the greenhouse red spider mite (Tetranychus urticae) are sprayed with a preparation of active compound of the desired concentration.
After the desired period of time, the activity in % is determined. 100% means that all spider mites have been killed; 0% means that none of the spider mites have been killed.

[11] = tested on: larvae of the mustard beetle (Phaedon cochleariae); assay: Phaedon Test (spray treatment); settings: 100 g/ha, Chinese cabbage discs
Description: [[[…]]] To produce a suitable preparation of active compound, 1 part by weight of active compound is mixed with the stated amounts of solvents and emulsifier, and the concentrate is diluted with emulsifier-containing water to the desired concentration. Discs of Chinese cabbage (Brassica pekinensis) are sprayed with a preparation of active compound of the desired concentration and, after they have dried, populated with larvae of the mustard beetle (Phaedon cochleariae).

Avena [12] = assay: Herbicidal pre-emergence action, greenhouse; settings: 320 g a.i./ha, 3 weeks
From the text: (§9) 1. Herbicidal Pre-Emergence Action
(§10) Seeds of monocotyledonous and dicotyledonous weed and crop plants are placed into sandy loam in wood fibre pots and covered with soil. The test compounds, formulated in the form of wettable powders (WP), are then, in various dosages as aqueous suspension with a water application rate of 600 l/ha (converted), with 0.2% of wetting agent added, applied to the surface of the covering soil.
(§11) After the treatment, the pots are placed in a greenhouse and kept under good growth conditions for the test plants. The visual assessment of the emergence damage on the test plants is carried out after a trial period of 3 weeks by comparison with untreated plants (herbicidal effect in per cent (%): 100% effect=the plants have died, 0% effect=like control plants).

Setaria [13] = assay: Herbicidal pre-emergence action, greenhouse; settings: 320 g a.i./ha, 3 weeks
From the text: as §9, §10, §11

Agropyron [14] = assay: Herbicidal pre-emergence action, greenhouse; settings: 320 g a.i./ha, 3 weeks
From the text: as §9, §10, §11

Alopecurus [15] = assay: Herbicidal pre-emergence action, greenhouse; settings: 320 g a.i./ha, 3 weeks
From the text: as §9, §10, §11

Sugar-beets [16] = assay: Herbicidal pre-emergence action, greenhouse; settings: 320 g a.i./ha, 3 weeks
From the text: as §9, §10, §11

Lolium [17] = assay: Herbicidal pre-emergence action, greenhouse; settings: 320 g a.i./ha, 3 weeks
From the text: as §9, §10, §11

Compound: CCc1cc(Br)cc(CC)c1C1=C(OC(=O)COC)[C@]2(CC[C@H](OC)CC2)NC1=O [Ex. I-b-1]
- Summer barley observed (%) (Summer barley [1]): 50%

Compound: CCOC(=O)OC1=C(c2c(C)cc(Br)cc2CC)C(=O)N[C@]12CC[C@@H](OC)CC2 [Ex. I-c-1]
- Kill rate in % after 5d [2]: 90%
- herbicidal effect, Avena (Avena [3]): 100%
- herbicidal effect, Setaria (Setaria [4]): 100%
- herbicidal effect, Agropyron (Agropyron [5]): 100%
- herbicidal effect, Alopecurus (Alopecurus [6]): 100%
- herbicidal effect, Sugar-beets (Sugar-beets [7]): 0%
- herbicidal effect, Lolium (Lolium [8]): 100%
- Summer wheat observed (%) (Summer wheat): 20%
- Summer barley observed (%) (Summer barley [9]): 35%
- Effect in % after 14d (Meloidogyne incognita): 90%
- Kill rate in % after 5d [10]: 70%
- Kill rate in % after 7d [11]: 83%
- herbicidal effect, Avena (Avena [12]): 97%
- herbicidal effect, Setaria (Setaria [13]): 100%
- herbicidal effect, Agropyron (Agropyron [14]): 100%
- herbicidal effect, Alopecurus (Alopecurus [15]): 100%
- herbicidal effect, Sugar-beets (Sugar-beets [16]): 0%
- herbicidal effect, Lolium (Lolium [17]): 100%

Compound: CCc1cc(Br)cc(C)c1C1=C(O)[C@]2(CC[C@H](OC)CC2)NC1=O [Ex. I-a-1]
- Summer wheat observed (%) (Summer wheat): 30%
- Summer barley observed (%) (Summer barley [9]): 35%
